# Measurements as given in patent US20200009173A1, “TRIAZOLE-CONTAINING MACROLIDES AND OPHTHALMIC USES THEREFOR” (Tetard, Inc., priority 2017, published 2020).
# Like-named read-outs stand apart in the source and are kept apart here.
# Assays:
# [1] = tested on: P. Acnes; test: MICs of solithromycin and comparator drugs against P. acnes; format: cell-based; conditions: for MIC50 / MIC90: Cutibacterium acnes
# Description: EXAMPLE. The formulations described herein show overall higher potency against ocular pathogens than commercial standards. MICs (μg/ml) of Solithromycin and Comparator Drugs against P. Acnes (51 Species)
# [2] = tested on: MMP9; test: MMP9 activity in PMA-stimulated U937 cells (gelatin zymography); format: cell-based, human
# Experimental: EXAMPLE. […] Cells. The human monocytic cell line U937 was obtained from the American Type Culture Collection (ATCC, Rockville, Md.). PBMCs from COPD patients were obtained from Brompton hospital and separated by AccuSPIN (Sigma-Aldrich). […] U937 cells were differentiated into adherent macrophage-like morphology by exposure to PMA (50 ng/ml) for 48 h in complete growth medium. Cell viability was assessed microscopically by trypan blue staining. Cell toxicity was determined by MTT assay as needed. This study was approved by the ethics committee of the Royal Brompton Hospitals, and all subjects gave written informed consent. Zymography. MMP9 enzyme activity was measured by gelatin zymography. […] After electrophoresis, gels were incubated and rinsed with Novex® zymogram renaturing buffer (Invitrogen) for 30 min at room temperature. The gels were then rinsed in Novex® zymogram developing buffer (Invitrogen) for 30 min at room temperature prior to overnight incubation in the developing buffer at 37° C. After incubation, the gels were stained using a Colloidal Blue Staining Kit (Invitrogen) to visualize the zymogen bands. Statistical analysis. The results were expressed as the mean±SEM. Comparisons of data in two groups were performed using the Student's t test or the Wilcoxon signed rank test. Multiple comparisons were made by one-way ANOVA with post hoc test (Dunnett's) as appropriate. The difference was considered significant at p<0.05.
# [3] = tested on: TNFα; test: TNFα production in LPS-stimulated PMA-differentiated U937 cells (ELISA); format: cell-based, human
# Experimental: (§1) EXAMPLE. […] Cells. The human monocytic cell line U937 was obtained from the American Type Culture Collection (ATCC, Rockville, Md.). PBMCs from COPD patients were obtained from Brompton hospital and separated by AccuSPIN (Sigma-Aldrich). […] U937 cells were differentiated into adherent macrophage-like morphology by exposure to PMA (50 ng/ml) for 48 h in complete growth medium. Cell viability was assessed microscopically by trypan blue staining. Cell toxicity was determined by MTT assay as needed. This study was approved by the ethics committee of the Royal Brompton Hospitals, and all subjects gave written informed consent. Cytokine ELISA. TNFα and IL-8 concentrations in the supernatant of cell cultures were determined by sandwich ELISA according to the manufacturer's instructions (R&D Systems Europe, Abingdon, UK). Statistical analysis. The results were expressed as the mean±SEM. Comparisons of data in two groups were performed using the Student's t test or the Wilcoxon signed rank test. Multiple comparisons were made by one-way ANOVA with post hoc test (Dunnett's) as appropriate. The difference was considered significant at p<0.05. […] Anti-inflammatory effects of solithromycin in U937 cells.
# [4] = tested on: CXCL8; test: CXCL8 (IL-8) production in LPS-stimulated PMA-differentiated U937 cells (ELISA); format: cell-based, human
# Experimental: as §1
# [5] = tested on: H. influenzae; test: MICs of solithromycin and comparator drugs, H. influenzae (30 species); format: cell-based; conditions: for MIC50 / MIC90: Haemophilus influenzae
# Description: (§2) EXAMPLE. The formulations described herein show overall higher potency against ocular pathogens than commercial standards.
# (§3) MICs (μg/ml) of Solithromycin and Comparator Drugs against Bacterial Species
# [6] = tested on: MSRA; test: MICs of solithromycin and comparator drugs, MSRA (30 species); format: cell-based; conditions: for I (intermediate susceptibility) / NS (not susceptible) / S (susceptible): 30 species
# Description: as §2, §3
# [7] = tested on: S. epidermidis; test: MICs of solithromycin and comparator drugs, S. epidermidis (30 species); format: cell-based; conditions: for MIC50 / MIC90: Staphylococcus epidermidis
# Description: as §2, §3
# [8] = tested on: MSSA; test: MICs of solithromycin and comparator drugs, MSSA (31 species); format: cell-based; conditions: for MIC50 / MIC90: Staphylococcus aureus, MSSA
# Description: as §2, §3
# [9] = tested on: S. pneumoniae; test: MICs of solithromycin and comparator drugs, S. pneumoniae (30 species); format: cell-based; conditions: for MIC50 / MIC90: Streptococcus pneumoniae
# Description: as §2, §3
# [10] = at a higher concentration (333 μM)
smiles,measurement,setting,value
C=CC1=C(C(=O)O)N2C(=O)[C@@H](NC(=O)/C(=N\OCC(=O)O)c3csc(N)n3)[C@H]2SC1 [Cefixime],MIC Range,[1],≤0.03 to 0.5 µg/mL
same,MIC50,[1]; 51 species,0.25 µg/mL
same,MIC90,[1]; 51 species,0.5 µg/mL
C[C@H]1c2cccc(O)c2C(=O)C2=C(O)[C@]3(O)C(=O)C(C(N)=O)=C(O)[C@@H](N(C)C)[C@@H]3[C@@H](O)[C@@H]21 [Doxycycline],MIC Range,[1],≤0.008 to 1 µg/mL
same,MIC50,[1]; 51 species,0.06 µg/mL
same,MIC90,[1]; 51 species,0.12 µg/mL
CC[C@H]1OC(=O)[C@H](C)C(=O)[C@H](C)[C@@H](O[C@@H]2O[C@H](C)C[C@H](N(C)C)[C@H]2O)[C@](C)(OC)C[C@@H](C)C(=O)[C@H](C)[C@H]2N(CCCCn3cnc(-c4cccnc4)c3)C(=O)O[C@]12C [Telithromycin],IC50,"[2]; Homo sapiens, U-937",97.9 µM
same,effect on TNFα production,[3]; at 100 μM,did not inhibit
same,effect on CXCL8 production,[4]; at 100 μM,did not inhibit
CC(=O)NC[C@H]1CN(c2ccc(N3CCOCC3)c(F)c2)C(=O)O1 [Linezolid],MIC Range,[1],≤0.03 to 0.5 µg/mL
same,MIC50,[1]; 51 species,0.25 µg/mL
same,MIC90,[1]; 51 species,0.5 µg/mL
C=CC1=C(C(=O)O)N2C(=O)[C@@H](NC(=O)/C(=N\O)c3csc(N)n3)[C@H]2SC1 [Cefdinir],MIC Range,[1],≤0.015 to 0.12 µg/mL
same,MIC50,[1]; 51 species,0.03 µg/mL
same,MIC90,[1]; 51 species,0.12 µg/mL
COc1c(N2C[C@@H]3CCCN[C@@H]3C2)c(F)cc2c(=O)c(C(=O)O)cn(C3CC3)c12 [Moxifloxacin],I (intermediate susceptibility),[5],0%
same,MIC Range,[5],0.015 to 0.06 µg/mL
same,NS (not susceptible),[5],0%
same,S (susceptible),[5],100%
same,MIC50,[5],0.03 µg/mL
same,MIC90,[5],0.06 µg/mL
same,MIC50,[6],2 µg/mL
same,MIC90,[6],8 µg/mL
same,I (intermediate susceptibility),[6],3%
same,NS (not susceptible),[6],87%
same,S (susceptible),[6],10%
same,I (intermediate susceptibility),[7],3%
same,NS (not susceptible),[7],13%
same,S (susceptible),[7],83%
same,MIC50,[7],0.06 µg/mL
same,MIC90,[7],4 µg/mL
same,I (intermediate susceptibility),[8],0%
same,MIC Range,[8],0.015 to 2 µg/mL
same,NS (not susceptible),[8],6%
same,S (susceptible),[8],94%
same,MIC50,[8],0.06 µg/mL
same,MIC90,[8],0.12 µg/mL
same,I (intermediate susceptibility),[9],0%
same,MIC Range,[9],0.015 to 0.25 µg/mL
same,NS (not susceptible),[9],0%
same,S (susceptible),[9],100%
same,MIC50,[9],0.12 µg/mL
same,MIC90,[9],0.25 µg/mL
NC[C@H]1O[C@H](O[C@H]2[C@H](O)[C@@H](O[C@H]3O[C@H](CO)[C@@H](O)[C@H](N)[C@H]3O)[C@H](N)C[C@@H]2N)[C@H](N)C[C@@H]1O [Tobramycin],MIC Range,[5],2 to 8 µg/mL
same,MIC50,[5],4 µg/mL
same,MIC90,[5],4 µg/mL
same,MIC50,[6],1 µg/mL
same,MIC90,[6],> 64 µg/mL
same,I (intermediate susceptibility),[6],3%
same,NS (not susceptible),[6],30%
same,S (susceptible),[6],67%
same,I (intermediate susceptibility),[7],3%
same,MIC Range,[7],0.12 to 64 µg/mL
same,NS (not susceptible),[7],23%
same,S (susceptible),[7],73%
same,MIC50,[7],0.5 µg/mL
same,MIC90,[7],32 µg/mL
same,I (intermediate susceptibility),[8],0%
same,MIC Range,[8],0.12 to 4 µg/mL
same,NS (not susceptible),[8],0%
same,S (susceptible),[8],100%
same,MIC50,[8],0.5 µg/mL
same,MIC90,[8],0.5 µg/mL
same,MIC Range,[9],4 to 16 µg/mL
same,MIC50,[9],16 µg/mL
same,MIC90,[9],16 µg/mL
"CC[C@H]1OC(=O)[C@H](C)[C@@H](O[C@H]2C[C@@](C)(OC)[C@@H](O)[C@H](C)O2)[C@H](C)[C@@H](O[C@@H]2O[C@H](C)C[C@H](N(C)C)[C@H]2O)[C@](C)(OC)C[C@@H](C)C(=O)[C@H](C)[C@@H](O)[C@]1(C)O [Clarithromycin, clarithromycin]",MIC Range,[1],≤0.015 to 0.5 µg/mL
same,MIC50,[1]; 51 species,≤ 0.015 µg/mL
same,MIC90,[1]; 51 species,0.25 µg/mL
same,"inhibitory effect on MMP9 activity, lower than solithromycin",[2],10 fold
same,IC50,"[3]; Homo sapiens, U-937, LPS, PMA-differentiated U937 cells, read-out: IC50 on TNFα release",426 ± 63.9 µM
same,effect on TNFα production,[3]; [10],modest effects
same,IC50,"[4]; Homo sapiens, U-937, LPS, PMA-differentiated U937 cells, read-out: IC50 on CXCL8 release",506 ± 44 µM
same,effect on IL-8 production,[4]; [10],modest effects
CN[C@H](CC(C)C)C(=O)N[C@H]1C(=O)N[C@@H](CC(N)=O)C(=O)N[C@H]2C(=O)N[C@H]3C(=O)N[C@H](C(=O)N[C@H](C(=O)O)c4cc(O)cc(O)c4-c4cc3ccc4O)[C@H](O)c3ccc(c(Cl)c3)Oc3cc2cc(c3O[C@@H]2O[C@H](CO)[C@@H](O)[C@H](O)[C@H]2O[C@H]2C[C@](C)(N)[C@H](O)[C@H](C)O2)Oc2ccc(cc2Cl)[C@H]1O [Vancomycin],MIC Range,[1]; 51 species,0.12 to 1 µg/mL
same,MIC50,[1]; 51 species,1 µg/mL
same,MIC90,[1]; 51 species,1 µg/mL
COCC1=C(C(=O)O)N2C(=O)[C@@H](NC(=O)/C(=N\OC)c3csc(N)n3)[C@H]2SC1 [Cefpodoxime],MIC Range,[1],≤0.015 to 2 µg/mL
same,MIC50,[1]; 51 species,0.5 µg/mL
same,MIC90,[1]; 51 species,2 µg/mL
C[C@H]1COc2c(N3CCN(C)CC3)c(F)cc3c(=O)c(C(=O)O)cn1c23 [Levofloxacin],MIC Range,[1],0.06 to 2 µg/mL
same,MIC50,[1]; 51 species,1 µg/mL
same,MIC90,[1]; 51 species,1 µg/mL
CC[C@H]1OC(=O)[C@H](C)[C@@H](O[C@H]2C[C@@](C)(OC)[C@@H](O)[C@H](C)O2)[C@H](C)[C@@H](O[C@@H]2O[C@H](C)C[C@H](N(C)C)[C@H]2O)[C@](C)(O)C[C@@H](C)C(=O)[C@H](C)[C@@H](O)[C@]1(C)O [erythromycin],effect on MMP9 activity,[2],no effect
same,effect on TNFα production,[3]; concentration not given,did not inhibit
same,effect on IL-8 production,[4]; concentration not given,did not inhibit
